What was measured:
Type in all cases: biochemical
[1] = system: fructosyl peptide oxidase (FPOX-CET); assay: Fructosyl valyl histidine detection reaction completed with excess fructosyl peptide oxidase (Example 6); settings: 0.04% (w/v) compound, 4.8 U/ml FPOX-CET (excess), 32 μM fructosyl valyl histidine, pH 7.0, 37° C.; for ΔA9 min: change in A694-A751 9 minutes after mixing; for ΔA10 min: change in A694-A751 10 minutes after mixing, defined as ΔA100%
Procedure: In this Example the amount of change in absorbance is determined when the detection reaction of the substrate fructosyl valyl histidine was completed using an excess amount of fructosyl peptide oxidase (FPOX-CET), which is an oxidase.
A reagent for fructosyl valyl histidine measurement having the following composition was prepared, and the measurement of fructosyl valyl histidine using fructosyl peptide oxidase was carried out using Bio Majesty JCA-BM1650 (manufactured by JEOL Ltd.).
(§1) 32 μM fructosyl valyl histidine (manufactured by Kikkoman Biochemifa Company)
(§2) 30 mM MOPS-NaOH buffer solution, pH 7.0
(§3) 0.2% (v/v) Triton X-100 (manufactured by Wako Pure Chemical Industries, Ltd.)
(§4) 10 U/ml peroxidase PEO-301 (Toyobo Co., Ltd.)
(§5) 0.023 mM 10-(carboxymethylaminocarbonyl)-3,7-bis(dimethylamino)phenothiazine sodium (DA-67, manufactured by Wako Pure Chemical Industries, Ltd.)
(§6) 0.04% (w/v) of the compound of Comparative Example 2, any one compound of the present invention, or compound-free (Comparative Example 1) ion-exchange water as shown in Table 1
(§7) 10 mM MOPS-NaOH buffer solution, pH 7.0
4.8 U/ml FPOX-CET (manufactured by Kikkoman Biochemifa Company)
(§8) 8 μl of the sample was added to 96 μl of the first reagent-B, and the mixture was incubated at 37° C. for 5 minutes. Then, 24 μl of the second reagent-C was added thereto, and the quantitative reaction of hydrogen peroxide resulting from the oxidation of fructosyl valyl histidine was allowed to progress at 37° C. for 5 minutes. The absorbance (A694 and A751) of the reaction solution for light at wavelengths of 694 nm and 751 nm was measured over time for 10 minutes after the mixing of the sample with the first reagent-B to determine the value of subtraction of A751 from A694, i.e., the value A694/751. Subsequently, ΔA was calculated by subtracting, from A674/751, the value of (104/128) times A694/751 4.8 minutes after the mixing of the sample with the first reagent-B. Incidentally, 4.8 minutes after the mixing of the sample with the first reagent-B represents the time immediately before the addition of the second reagent-C. ΔA 9 minutes and 10 minutes after the mixing of the diluted sample with the first reagent-B (ΔA9min and ΔA10min) are shown in Table 3.
In other words, it can be recognized that the quantitative reaction of fructosyl valyl histidine, i.e., the quantitative reaction of hydrogen peroxide resulting from the oxidation of fructosyl valyl histidine, was completed in 10 minutes after the mixing of the diluted sample with the first reagent-B. Accordingly, in Examples 6 and 7, ΔA10min in each Comparative Example or the present invention was defined as ΔA when 100% of the quantitative reaction of […] progressed under each condition (ΔA100%).

[2] = system: fructosyl peptide oxidase (FPOX-CET); assay: Acceleration of fructosyl valyl histidine detection reaction with small amount of fructosyl peptide oxidase (Example 7); settings: 0.04% (w/v) compound, 0.48 U/ml FPOX-CET; for effect of accelerating the fructosyl valyl histidine detection reaction: versus not added; for Degree of progression of reaction (%) after 7.5 minutes / Degree of progression of reaction (%) after 10 minutes: fructosyl valyl histidine detection reaction, ΔA/ΔA100%; for Degree of progression of reaction (%) after 7.5 minutes: 2.5 minutes after addition of second reagent, not added: 57; for Degree of progression of reaction (%) after 10 minutes: 5 minutes after addition of second reagent, not added: 81
Procedure: Next, in this Example, the degree of acceleration of fructosyl valyl histidine detection reaction by the compound of the present invention was determined using a small amount of fructosyl peptide oxidase.
A reagent for fructosyl valyl histidine measurement having the following composition was prepared, and the measurement of fructosyl valyl histidine was carried out using Bio Majesty JCA-BM 1650 (manufactured by JEOL Ltd.).
as §1, §2, §3, §4, §5, §6, §7
0.48 U/ml FPOX-CET (manufactured by Kikkoman Biochemifa Company)
as §8, with “second reagent-D” for “second reagent-C”, “from A694.” for “from A694,”, “from A694/751,” for “from A674/751,”, “Incidentally, 5” for “Incidentally, 4.8”, “second reagent-D.” for “second reagent-C. ΔA 9 minutes and 10 minutes after the mixing of the diluted sample with the first reagent-B (ΔA9min and ΔA10min) are shown in Table 3.”
(§9) Next, ΔA calculated in this Example was divided by ΔA1000% defined in Example 6 to calculate the degree of progression of fructosyl valyl histidine detection reaction. The degree of progression of fructosyl valyl histidine detection reaction 7.5 and 10 minutes after the mixing of the sample with the first reagent-B (in other words, 2.5 and 5 minutes after the addition of the second reagent-D) is shown in Table 4.

[3] = system: fructosyl amino acid oxidase (FAOD-E); assay: Acceleration of fructosyl valine detection reaction with small amount of fructosyl amino acid oxidase (Example 9); settings: 0.04% (w/v) compound, 2.14 U/ml FAOD-E; for effect of accelerating fructosyl valine detection reaction: versus not added; for Degree of progression of reaction (%) after 7.5 minutes / Degree of progression of reaction (%) after 10 minutes: fructosyl valine detection reaction, ΔA/ΔA100%; for Degree of progression of reaction (%) after 7.5 minutes: 2.5 minutes after addition of second reagent, not added: 29; for Degree of progression of reaction (%) after 10 minutes: 5 minutes after addition of second reagent, not added: 48
Procedure: Next, in this Example, the degree of acceleration of fructosyl valine detection reaction by the compound of the present invention was determined using a small amount of fructosyl amino acid oxidase.
A reagent for fructosyl valine measurement having the following composition was prepared, and the measurement of fructosyl valine was carried out using Bio Majesty JCA-BM1650 (manufactured by JEOL Ltd.).
32 μM fructosyl valine (manufactured by Kikkoman Biochemifa Company)
30 mM MOPS-NaOH buffer solution, pH 8.0
0.2% (v/v) NYMEEN F-215 (manufactured by NOF Corp.)
as §4, §5, §6
10 mM MOPS-NaOH buffer solution, pH 8.0
2.14 U/ml FAOD-E (manufactured by Kikkoman Biochemifa Company)
8 μl of the sample was added to 96 μl of the first reagent-C, and the mixture was incubated at 37° C. for 5 minutes. Then, 24 μl of the second reagent-F was added thereto, and the quantitative reaction of hydrogen peroxide resulting from the oxidation of fructosyl valine was allowed to progress at 37° C. for 5 minutes. The absorbance (A694 and A751) of the reaction solution for light at wavelengths of 694 nm and 751 nm was measured over time for 10 minutes after the mixing of the sample with the first reagent-C to determine the value of subtraction of A751 from A694, i.e., the value A694/751. Subsequently, ΔA was calculated by subtracting, from A694/751, the value of (104/128) times A694/751 4.8 minutes after the mixing of the sample with the first reagent-C. Incidentally, 5 minutes after the mixing of the sample with the first reagent-C represents the time immediately before the addition of the second reagent-F.
as §9, with “ΔA100%” for “ΔA1000%”, “8” for “6”, “valine” for “valyl histidine”, “reagent-C” for “reagent-B”, “reagent-F)” for “reagent-D)”, “6.” for “4.”

Molecule | ΔA9 min [1] | ΔA10 min [1] | effect of accelerating the fructosyl valyl histidine detection reaction [2] | Degree of progression of reaction (%) after 7.5 minutes [2] [%] | Degree of progression of reaction (%) after 10 minutes [2] [%] | effect of accelerating fructosyl valine detection reaction [3] | Degree of progression of reaction (%) after 7.5 minutes [3] [%] | Degree of progression of reaction (%) after 10 minutes [3] [%]
Cc1nn(-c2cc(S(=O)(=O)[O-])ccc2Cl)c(O)c1N=Nc1ccccc1.[Na+] [Acid Yellow 34] | 0.032 | 0.033 | effect of accelerating the fructosyl valyl histidine detection reaction | 62 | 86 |  |  | 
O=C([O-])c1cc(N=Nc2cccc([N+](=O)[O-])c2)ccc1O.[Na+] [Alizarin Yellow GG] |  |  |  |  |  | effect of accelerating fructosyl valine detection reaction | 38 | 62
O=C(O)c1cc(N=Nc2ccc3cc(S(=O)(=O)O)ccc3c2)ccc1O.[Na] [Chrome Yellow] | 0.064 | 0.064 | effect of accelerating the fructosyl valyl histidine detection reaction | 62 | 86 | effect of accelerating fructosyl valine detection reaction | 43 | 68
COc1cc(N=Nc2cccc(S(=O)(=O)[O-])c2)ccc1NC(=O)Nc1ccc(N=Nc2ccc(O)c(C(=O)[O-])c2)cc1.[Na+].[Na+] [Direct Yellow 44] | 0.043 | 0.043 | effect of accelerating the fructosyl valyl histidine detection reaction | 66 | 88 |  |  | 
COc1cc(N=Nc2ccc(N)cc2)c(C)cc1N [Disperse Diazo Black 3BF] |  |  |  |  |  | effect of accelerating fructosyl valine detection reaction | 86 | 89
O=C([O-])c1cc(N=Nc2ccc([N+](=O)[O-])cc2)ccc1O.[Na+] [Mordant Orange 1] |  |  |  |  |  | effect of accelerating fructosyl valine detection reaction | 37 | 59
Xylene Fast Yellow 2G | 0.027 | 0.027 | effect of accelerating the fructosyl valyl histidine detection reaction | 63 | 96 |  |  | 

Reference: patent publication US11384381B2, “Reaction accelerating agent” (Kikkoman Corporation, priority 2016, dated 2022)
